Earlier results on two molecules are cited in US20230285429A1, “CANNABINOID ACID FORMULATIONS, DELIVERY SYSTEMS, AND METHODS OF USE” (Flora Growth U.S. Holdings Corp., priority 2022, published 2023).

The data set has as its system pseudovirus expressing the spike protein. To be noted: human epithelial cell lines, CBGA or CBDA individually.

On to `C=C(C)[C@@H]1CCC(C)=C[C@H]1c1c(O)cc(CCCCC)c(C(=O)O)c1O` [CBDA, cannabidiolic acid], for which the “infection by pseudovirus expressing the spike protein” value was “reduce infection”. Turning to `CCCCCc1cc(O)c(C/C=C(\C)CCC=C(C)C)c(O)c1C(=O)O` [CBGA, cannabigerolic acid], the “infection by pseudovirus expressing the spike protein” value is listed as “reduce infection”.
